# Results published in patent US5892099A, “3,7-dithiaprostanoic acid derivative” (Ono Pharmaceutical Co., Ltd., priority 1997, dated 1999).
# How the values were obtained:
# mouse EP4 = molecular target: T1, mouse EP4 (Mus musculus, UniProt P32240); assay: Binding assay using expression cell of the prostanoid receptor subtype (EP4), competition of specific 3H-PGE2 binding; conditions: membrane fraction of EP4 expressing CHO cells; 2.5 nM 3H-PGE2; pH 6.0; 1 hour at room temperature; read-out: Dissociation constant for EP4 Ki
# T1 construct: expressed in transfected cells; host or cells: CHO cells
# T1 sequence (P32240 whole entry): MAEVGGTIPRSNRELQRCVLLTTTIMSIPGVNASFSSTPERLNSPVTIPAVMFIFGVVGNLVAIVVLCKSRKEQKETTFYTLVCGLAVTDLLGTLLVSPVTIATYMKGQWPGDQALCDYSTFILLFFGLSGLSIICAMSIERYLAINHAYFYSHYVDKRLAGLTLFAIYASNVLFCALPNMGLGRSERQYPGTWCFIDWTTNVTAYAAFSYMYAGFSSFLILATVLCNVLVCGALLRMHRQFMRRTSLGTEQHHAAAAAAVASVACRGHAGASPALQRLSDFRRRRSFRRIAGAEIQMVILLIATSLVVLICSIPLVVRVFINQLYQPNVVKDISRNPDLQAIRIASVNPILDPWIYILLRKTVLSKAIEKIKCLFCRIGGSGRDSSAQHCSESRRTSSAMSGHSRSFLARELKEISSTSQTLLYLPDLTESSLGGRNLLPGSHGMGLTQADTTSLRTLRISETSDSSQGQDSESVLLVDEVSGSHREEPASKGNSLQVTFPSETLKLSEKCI
# Protocol: (§1) (I) Binding assay using expression cell of the prostanoid receptor subtype
# (§2) The preparation of membrane fraction was carried out according to the method of Sugimoto et al (J. Biol. Chem. 267, 6463-6466 (1992)) using the prostanoid receptor subtypes (mouse EP3α, EP4) expressing CHO cells.
# (§3) The standard assay mixture containing membrane fraction (0.5 mg/ml) and ^3 H-PGE2 in a final volume of 200 μl was incubated for 1 hour at room temperature. The reaction was terminated by the addition of 3 ml of ice-cold buffer. The mixture was rapidly filtered through a GF/B glass filter. The radioactivity associated with the filter was measured by liquid scintillation counting.
# (§4) Kd and Bmax value were determined from Scatchard plots (Ann. N. Y. Sci., 51, 660 (1949)). Non-specific binding was calculated as the bound in the presence of an excess (2.5 μM) of unlabeled PGE2.
# (§5) In the experiment for competition of specific ^3 H-PGE2 binding by the compounds of the present invention, 2.5 nM of ^3 H-PGE2 and various concentration of the compounds of the present invention were added. The following buffer was used in all reactions. Buffer: 10 mM potassium phosphate (pH 6.0), 1 mM EDTA, 10 mM MgCl2, 0.1M NaCl. The dissociation constant (Ki) of each compound was calculated by the following equation.
# mouse EP3α = molecular target: T2, mouse EP3α (Mus musculus, UniProt P30557); assay: Binding assay using expression cell of the prostanoid receptor subtype (EP3α), competition of specific 3H-PGE2 binding; conditions: membrane fraction of EP3α expressing CHO cells; 2.5 nM 3H-PGE2; pH 6.0; 1 hour at room temperature; read-out: Dissociation constant for EP3α Ki
# T2 construct: expressed in transfected cells; host or cells: CHO cells
# T2 sequence (P30557 1-365): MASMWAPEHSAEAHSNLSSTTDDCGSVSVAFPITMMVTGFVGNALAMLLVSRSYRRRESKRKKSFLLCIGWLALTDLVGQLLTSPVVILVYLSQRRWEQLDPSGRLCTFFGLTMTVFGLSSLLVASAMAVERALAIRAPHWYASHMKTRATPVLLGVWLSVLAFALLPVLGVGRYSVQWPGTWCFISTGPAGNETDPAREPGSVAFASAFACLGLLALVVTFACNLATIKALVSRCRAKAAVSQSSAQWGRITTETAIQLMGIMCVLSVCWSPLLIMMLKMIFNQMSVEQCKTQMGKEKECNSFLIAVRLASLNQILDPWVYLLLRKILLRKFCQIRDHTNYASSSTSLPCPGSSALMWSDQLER
# Protocol: as §1, §2, §3, §4, §5
SMILES,Ki (mouse EP4) [nM],Ki (mouse EP3α) [nM]
"CCCCC[C@H](O)CC[C@@H]1C(SCCCSCC(=O)O)C(=O)C[C@H]1O (stereo partly drawn) [Example 2(d), 11α,15α-dihydroxy-9-oxo-3,7-dithiaprostanoic acid]",1.6,–
"O=C(O)CSCCCSC1C(=O)CC(O)C1/C=C/C(O)CC1CCCC1 (stereo not drawn) [Example 2(t), 11α,15α-dihydroxy-9-oxo-16-cyclopentyl-3,7-dithia-17,18,19,20-tetranorprost-13E-enoic acid]",4.2,–
"CCCCC[C@](C)(O)/C=C/[C@H]1[C@H](O)CC(=O)[C@@H]1SCCCSCC(=O)O [Example 2(k), 11α,15α-dihydroxy-9-oxo-15β-methyl-3,7-dithiaprost-13E-enoic acid]",0.7,34
"O=C(O)CSCCCSC1C(=O)CC(O)C1/C=C/C(O)Cc1ccccc1 (stereo not drawn) [Example 2(f), 11α,15α-dihydroxy-9-oxo-16-phenyl-17,18,19,20-tetranor-3,7-dithiaprost-13E-enoic acid]",7,130
"O=C(O)CSCCCSC1C(=O)CC(O)C1/C=C/C(O)CCc1ccccc1 (stereo not drawn) [Example 2(g), 11α,15α-dihydroxy-9-oxo-17-phenyl-18,19,20-trinor-3,7-dithiaprost-13E-enoic acid]",6,–
"CCCCC(C)(O)C/C=C/C1C(O)CC(=O)C1SCCCSCC(=O)O (stereo not drawn) [Example 2(c), 11α,16β-dihydroxy-9-oxo-16α-methyl-3,7-dithiaprost-13E-enoic acid]",5.6,–
"O=C(O)CSCCCS[C@H]1C(=O)C[C@@H](O)[C@@H]1/C=C/[C@@H](O)C1CCCCC1 [Example 2(h), 11α,15α-dihydroxy-9-oxo-15-cyclohexyl-3,7-dithia-16,17,18,19,20-pentanorprost-13E-enoic acid]",22,610

# Next, values leading:
Ki (mouse EP4) [nM],Ki (mouse EP3α) [nM],SMILES
0.91,–,"CC/C=C\CC(O)/C=C/C1C(O)CC(=O)C1SCCCSCC(=O)O (stereo not drawn) [Example 2(e), 11α,15α-dihydroxy-9-oxo-3,7-dithiaprost-13E,17Z-dienoic acid]"
0.7,1500,"CCCCCC(O)/C=C/C1C(O)CC(=O)C1SCCCSCC(=O)O (stereo not drawn) [Example 2, 11α,15α-dihydroxy-9-oxo-3,7-dithiaprost-13E-enoic acid]"
0.8,10,"CCCCC(C)CC(O)/C=C/C1C(O)CC(=O)C1SCCCSCC(=O)O (stereo not drawn) [Example 2(a), 11α,15α-dihydroxy-9-oxo-17β,20-dimethyl-3,7-dithiaprost-13E-enoic acid]"
0.4,–,"O=C(O)CSCCCSC1C(=O)CC(O)C1/C=C/C(O)CCCC1CC1 (stereo not drawn) [Example 2(q), 11α,15α-dihydroxy-9-oxo-19,20-methano-3,7-dithiaprost-13E-enoicacid]"
1.4,23,"CCCCC(O)/C=C/C1C(O)CC(=O)C1SCCCSCC(=O)O (stereo not drawn) [Example 2(m), 11α,15α-dihydroxy-9-oxo-3,7-dithia-20-norprost-13E-enoic acid]"
0.6,–,"CCCC[C@H](C)C[C@H](O)/C=C/[C@H]1[C@H](O)CC(=O)[C@@H]1SCCCSCC(=O)O [Example 2(b), 11α,15α-dihydroxy-9-oxo-17α,20-dimethyl-3,7-dithiaprost-13E-enoic acid]"
0.2,25,"CCCC[C@H](C)[C@H](O)/C=C/[C@@H]1C(SCCCSCC(=O)O)C(=O)C[C@H]1O (stereo partly drawn) [Example 2(o), 11α,15α-dihydroxy-9-oxo-16β-methyl-3,7-dithiaprost-13E-enoic acid]"
